Target: T1, human P2X4 (Homo sapiens, UniProt Q99571)
T1 sequence (Q99571 1-388): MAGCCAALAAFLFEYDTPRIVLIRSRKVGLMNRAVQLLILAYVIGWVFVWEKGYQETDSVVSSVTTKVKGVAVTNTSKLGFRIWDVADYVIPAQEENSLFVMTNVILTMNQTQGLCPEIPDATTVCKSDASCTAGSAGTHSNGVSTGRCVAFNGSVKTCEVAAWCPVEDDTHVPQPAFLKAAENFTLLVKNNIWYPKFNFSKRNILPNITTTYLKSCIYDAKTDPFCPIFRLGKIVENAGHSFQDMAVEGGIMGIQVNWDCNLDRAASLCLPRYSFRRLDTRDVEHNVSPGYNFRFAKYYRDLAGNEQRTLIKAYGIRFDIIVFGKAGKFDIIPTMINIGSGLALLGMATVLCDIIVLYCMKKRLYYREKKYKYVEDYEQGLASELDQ
Experiment: Human P2X4 HEK Cell FLIPR Assay
Assay type: cell-based
Conditions: agonist Bz-ATP at EC80; for Emax: HEK293, HEK293 cells, percentage of maximal inhibition, read-out: Human P2X4 HEK Cells (FLIPR Assay) avg Efficacy [%]; for IC50: HEK293 cells, individual values listed where some fall outside detection range
Procedure, shortened: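 Calcium flux read by FLIPR for 120 sec after Bz-ATP challenge at EC80 (established each assay day), following 30 min room-temperature compound preincubation in dye-loaded stable human P2X4 HEK293 cells. Peak RFU over basal normalized to agonist control; IC50, maximal inhibition and Hill coefficient from triplicate means.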

| Compound | Emax [%] | IC50 [µM] |
| --- | --- | --- |
| Cn1cc(-c2ccc(NC(=O)Cc3c(F)cccc3Cl)cc2S(N)(=O)=O)cn1 [Example 339, 2-(2-Chloro-6-fluorophenyl)-N-[4-(1-methyl-1H-pyrazol-4-yl)-3-sulfamoylphenyl]-acetamide] | 92 | 0.033 |
| CC(C)(O)c1cccc(-c2ccc(NC(=O)Cc3ccccc3Cl)cc2S(N)(=O)=O)c1 [Example 342, 2-(2-Chlorophenyl)-N-[3′-(2-hydroxypropan-2-yl)-2-sulfamoylbiphenyl-4-yl]acetamide] | 101 | 0.041 |
| NS(=O)(=O)c1cc(NC(=O)Cc2ccccc2Cl)ccc1-c1cnn(C2CCC2)c1 [Example 280, 2-(2-Chlorophenyl)-N-[4-(1-cyclobutyl-1H-pyrazol-4-yl)-3-sulfamoylphenyl]acetamide] | 101 | 0.06 |
| Cc1nc(-c2ccc(NC(=O)Cc3ccccc3Cl)cc2S(N)(=O)=O)sc1C [Example 502, 2-(2-Chlorophenyl)-N-[4-(4,5-dimethyl-1,3-thiazol-2-yl)-3-sulfamoylphenyl]acetamide] | 49 | 13.8 |
| NS(=O)(=O)c1cc(NC(=O)Cc2ccccc2Cl)ccc1-n1ncc(C(F)(F)F)n1 [Example 241, 2-(2-Chlorophenyl)-N-{3-sulfamoyl-4-[4-(trifluoromethyl)-2H-1,2,3-triazol-2-yl]-phenyl}acetamide] | 92 | 0.048 |
| Cc1coc(-c2ccc(NC(=O)Cc3ccccc3Cl)cc2S(N)(=O)=O)n1 [Example 432, 2-(2-Chlorophenyl)-N-[4-(4-methyl-1,3-oxazol-2-yl)-3-sulfamoylphenyl]acetamide] | 92 | 0.597 |
| NS(=O)(=O)c1cc(NC(=O)Cc2c(F)cccc2Cl)ccc1-c1cncc(C(F)(F)F)c1 [Example 445, 2-(2-Chloro-6-fluorophenyl)-N-{3-sulfamoyl-4-[5-(trifluoromethyl)pyridin-3-yl]phenyl}acetamide] | 71 | 0.06 |
| Cc1cnn(-c2ccc(NC(=O)Cc3ccccc3Cl)cc2S(N)(=O)=O)c1 [Example 248, 2-(2-Chlorophenyl)-N-[4-(4-methyl-1H-pyrazol-1-yl)-3-sulfamoylphenyl]acetamide] | 74 | 0.084 |
| CC(C)Oc1ncccc1-c1ccc(NC(=O)Cc2ccccc2Cl)cc1S(N)(=O)=O [Example 336, 2-(2-Chlorophenyl)-N-{4-[2-(propan-2-yloxy)pyridin-3-yl]-3-sulfamoylphenyl}acetamide] | 109 | 0.028 |
| NS(=O)(=O)c1cc(NC(=O)Cc2ccccc2Cl)ccc1-n1cc(C(F)(F)F)nn1 [Example 242, 2-(2-Chlorophenyl)-N-{3-sulfamoyl-4-[4-(trifluoromethyl)-1H-1,2,3-triazol-1-yl]-phenyl}acetamide] | 86 | 0.037 |
| NS(=O)(=O)c1cc(NC(=O)Cc2ccccc2Cl)ccc1-n1cc(NC(=O)C(F)F)cn1 [Example 506, N-[1-(4-{[(2-Chlorophenyl)acetyl]amino}-2-sulfamoylphenyl)-1H-pyrazol-4-yl]-2,2-difluoroacetamide] | 91 | 0.391 |
| NS(=O)(=O)c1cc(NC(=O)Cc2cccc(C(F)(F)F)c2Cl)ccc1-c1cnn(C(F)F)c1 [Example 490, 2-[2-Chloro-3-(trifluoromethyl)phenyl]-N-{4-[1-(difluoromethyl)-1H-pyrazol-4-yl]-3-sulfamoylphenyl}acetamide] | 95 | 0.091 |
| NS(=O)(=O)c1cc(NC(=O)Cc2ccccc2F)ccc1-n1cnc(C2CC2)c1 [Example 263, N-[4-(4-Cyclopropyl-1H-imidazol-1-yl)-3-sulfamoylphenyl]-2-(2-fluorophenyl)-acetamide] | 96 | 0.337 |
| NS(=O)(=O)c1cc(NC(=O)Cc2ccccc2Cl)ccc1-c1cnc(C2CC2)s1 [Example 430, 2-(2-Chlorophenyl)-N-[4-(2-cyclopropyl-1,3-thiazol-5-yl)-3-sulfamoylphenyl]acetamide] | 87 | 0.086 |
| N#Cc1cnn(-c2ccc(NC(=O)Cc3c(F)cccc3Cl)cc2S(N)(=O)=O)c1 [Example 183, 2-(2-Chloro-6-fluorophenyl)-N-[4-(4-cyano-1H-pyrazol-1-yl)-3-sulfamoylphenyl]-acetamide] | 96 | 0.039 |
| COCCn1cc(-c2ccc(NC(=O)Cc3ccccc3F)cc2S(N)(=O)=O)cn1 [Example 369, 2-(2-Fluorophenyl)-N-{4-[1-(2-methoxyethyl)-1H-pyrazol-4-yl]-3-sulfamoylphenyl}acetamide] | 110 | 0.141 |
| N#Cc1cnn(-c2cc(C(F)(F)F)c(NC(=O)Cc3cc(C(F)(F)F)ccc3Cl)cc2S(N)(=O)=O)c1 [Example 486, 2-[2-Chloro-5-(trifluoromethyl)phenyl]-N-[4-(4-cyano-1H-pyrazol-1-yl)-5-sulfamoyl-2-(trifluoromethyl)phenyl]acetamide] | 71 | 7.34 |
| NS(=O)(=O)c1cc(NC(=O)Cc2ccc(F)cc2F)ccc1-c1ccc(Cl)nc1 [Example 466, N-[4-(6-Chloropyridin-3-yl)-3-sulfamoylphenyl]-2-(2,4-difluorophenyl)acetamide] | 91 | 0.363 |
| CC(C)Cn1cc(-c2ccc(NC(=O)Cc3ccccc3Cl)cc2S(N)(=O)=O)cn1 [Example 328, 2-(2-Chlorophenyl)-N-{4-[1-(2-methylpropyl)-1H-pyrazol-4-yl]-3-sulfamoylphenyl}acetamide] | 94 | 0.012 |
| NS(=O)(=O)c1cc(NC(=O)Cc2cccc(F)c2)ccc1-n1cnc(C(F)(F)F)n1 [Example 55, 2-(3-Fluorophenyl)-N-{3-sulfamoyl-4-[3-(trifluoromethyl)-1H-1,2,4-triazol-1-yl]-phenyl}acetamide] | 74 | 1.4 |
| NS(=O)(=O)c1cc(NC(=O)Cc2ccccc2C(F)(F)F)ccc1-n1cc(F)cn1 [Example 140, N-[4-(4-Fluoro-1H-pyrazol-1-yl)-3-sulfamoylphenyl]-2-[2-(trifluoromethyl)phenyl]-acetamide] | 92 | 0.077 |
| CC(C)(C)c1nn(-c2ccc(NC(=O)Cc3ccccc3Cl)cc2S(N)(=O)=O)cc1C#N [Example 539, N-[4-(3-tert-Butyl-4-cyano-1H-pyrazol-1-yl)-3-sulfamoylphenyl]-2-(2-chlorophenyl)acetamide] | 103 | 0.127 |
| N#Cc1cnn(-c2ccc(NC(=O)Cc3ccccc3OC(F)(F)F)cc2S(N)(=O)=O)c1 [Example 204, N-[4-(4-Cyano-1H-pyrazol-1-yl)-3-sulfamoylphenyl]-2-[2-(trifluoromethoxy)phenyl]-acetamide] | 86 | 0.072 |

From patent US11524938B2, “Aromatic sulfonamide derivatives” (Bayer Pharma Aktiengesellschaft, priority 2016, dated 2022)
